pIC50: −log10 of the molar value. ≈ marks a conversion by molar mass, not a printed value. Read-outs that look alike come from different tables or passages of the source. Residues, ends and D or L forms follow the SMILES beside them. *: point of attachment. X1 = NOCC(=O)NCCOCCN*
Legend:
[1] = target: T1, ανβ3 integrin present on viable MDA-MB-435 cells (Homo sapiens, UniProt P05106+P06756); assay: Vitronectin cell adhesion (competition) assay; format: cell-based
T1 construct: endogenous in cells
Text: The data are presented as the mean fluorescence for each condition with the background, drug-free cell fluorescence subtracted.

[2] = tested on: Staphylococcus aureus 8325 (susceptible); assay: microbe, parasite or virus in culture
[3] = tested on: Staphylococcus aureus Mu 50 (VISA); settings: for MIC: Mu 50 VISA
[4] = tested on: Staphylococcus aureus Mu 3 (Hetero VISA)
[5] = tested on: Staphylococcus aureus IL-A (Hetero VISA)
[6] = tested on: Staphylococcus aureus IL-F (VISA)
[7] = tested on: Staphylococcus aureus 8325 (susceptible); settings: for MIC: 8325 susceptible
[8] = cell line not stated; cited from earlier work
[9] = tested on: Staphylococcus aureus Mu 3 (Hetero VISA); assay: microbe, parasite or virus in culture
[10] = tested on: Staphylococcus aureus Mu 50 (VISA); assay: microbe, parasite or virus in culture
[11] = tested on: Staphylococcus aureus IL-A (Hetero VISA); assay: microbe, parasite or virus in culture
[12] = tested on: Staphylococcus aureus IL-F (VISA); assay: microbe, parasite or virus in culture
[13] = tested on: MDA-MB-231; assay: Breast cancer cell growth inhibition, 4 h treatment; settings: MDA-MB-231 (−/+/−), 4 h treatment
Description: (§1) Breast cancer cell growth inhibition: The ER-targeted DOX-formaldehyde conjugates, 11a-c, were evaluated against four breast cancer cell lines that differ in terms of estrogen receptor and multidrug resistance expression. MCF-7 cells are human breast adenocarcinoma cells that express estrogen receptor at a level of 195,000 sites/cell. MCF-7/Adr cells are an ER-negative, doxorubicin-resistant variant of the parent MCF-7 that express the multidrug resistance (MDR) phenotype. MDA-MB-231 and MDA-MB-435 are ER-negative human breast adenocarcinoma and ductal carcinoma cells, respectively. All cytotoxins were formulated as 100× solutions in DMSO/1% AcOH and delivered to cells as 1% DMSO (0.01% AcOH) in cell culture medium. In all experiments cell treatment lasted 4 h.
(§2) In Vitro cellular growth inhibition experiments: The IC50 for the targeted formaldehyde conjugates and all control compounds were performed as previously described with minor modifications. All compounds were solubilized in dimethylsulfoxide containing 1% v/v acetic acid. The concentrations of all 100× DMSO/1% AcOH drug solutions was determined spectrophotometrically by absorbance at 480 nm (ε=[…]). […] For every experiment each drug level and controls were performed in hexuplicate; each experiment was performed in at least duplicate. Error bars represent one standard deviation about the mean for the six wells per lane measured for each drug concentration.

[14] = tested on: MDA-MB-435; assay: as above; settings: MDA-MB-435 (−/+/−), 4 h treatment
Description: as §1, §2

[15] = tested on: MCF-7/Adr cells; assay: as above; settings: MCF-7/Adr (−/+/+), 4 h treatment
Description: as §1, §2

[16] = tested on: MCF-7 cells; assay: as above; settings: MCF-7 (ER/AEBS/MDR +/+/−), 4 h treatment
Description: as §1, §2

[17] = tested on: MCF-7/ADR; settings: resistant MCF-7/ADR; cited from earlier work
[18] = cited from earlier work; for tolerance by mice: doxoform: doses as low as 1 mg/kg, epidoxoform: up to 150% of MTD of doxorubicin
[19] = tested on: MCF-7; settings: sensitive MCF-7; cited from earlier work
[20] = buffer, pH 7.4; cited from earlier work
[21] = tested on: MDA-MB-23 1, and BT-20 human breast cancer cells; settings: cited from earlier work
[22] = tested on: human breast cancer xenografts; settings: same time period (10 days); cited from earlier work
[23] = tested on: S. aureus ATCC 25723; settings: cited from earlier work
[24] = tested on: Human erythrocytes; settings: cited from earlier work
[25] = tested on: 3T3 mouse fibroblasts; settings: cited from earlier work
[26] = tested on: P. aeruginosa ATCC 27853; settings: cited from earlier work
[27] = tested on: E. coli ATCC 25922; settings: cited from earlier work
[28] = Water solubility and storage stability of RGD constructs

## N=C(N)NCCC[C@H](NC(=O)[C@H](CS)NC(=O)[C@H](CC(=O)O)NC(=O)[C@@H](N)CS)C(=O)NCC(=O)N[C@@H](CC(=O)O)C(=O)N[C@@H](CS)C(=O)N[C@@H](Cc1ccccc1)C(=O)N[C@@H](CS)C(=O)NCCOCCNC(=O)CON [Acyclic-RGD-4C-tether 3] (H-CDCRGDCFC-X1)
[1]
  pIC50: 9.00

## O=C(O)c1cn(C2CC2)c2cc(N3CCNCC3)c(F)cc2c1=O [Ciprofloxacin, ciprofloxacin]
[2]; 24 h
  MIC: 6 µM (≈ 1.99 µg/mL)
[2]; 48 h
  MIC: 12 µM (≈ 3.98 µg/mL)
[3]; VISA and hetero VISA strains
  antibiotic activity: inactive

## O=C(NCN1CCN(c2cc3c(cc2F)c(=O)c(C(=O)O)cn3C2CC2)CC1)c1ccccc1O [Ciprosaliform, N-(2-Hydroxybenzamido-methyl)-ciprofloxacin]
[4]; 24 hr
  MIC: 4 µM (≈ 1.92 µg/mL)
[4]; 48 hr
  MIC: 8 µM (≈ 3.84 µg/mL)
[5]; 24 hr
  MIC: 8/8 μM
[5]; 48 hr
  MIC: 8/8 μM
[6]; 24 hr
  MIC: 8/8 μM
[6]; 48 hr
  MIC: 8/8 μM
[3]; 24 hr
  MIC: 4 µM (≈ 1.92 µg/mL)
[3]; 48 hr
  MIC: 8 µM (≈ 3.84 µg/mL)
[7]; 24 hr
  MIC: 1/1 μM
[7]; 48 hr
  MIC: 1/1 μM
[7]; susceptible strain
  fold more active than ciprofloxacin: 6 fold

## C#Cc1cccc(Nc2ncnc3cc(OCCOC)c(OCCOC)cc23)c1 [Tarceva, reference compound]
[8]
  pIC50: 7.30

## CN[C@H](CC(C)C)C(=O)N[C@H]1C(=O)N[C@@H](CC(N)=O)C(=O)N[C@H]2C(=O)N[C@H]3C(=O)N[C@H](C(=O)N[C@H](C(=O)O)c4cc(O)cc(O)c4-c4cc3ccc4O)[C@H](O)c3ccc(c(Cl)c3)Oc3cc2cc(c3O[C@@H]2O[C@H](CO)[C@@H](O)[C@H](O)[C@H]2O[C@H]2C[C@](C)(N)[C@H](O)[C@H](C)O2)Oc2ccc(cc2Cl)[C@H]1O [Vancomycin, vancomycin]
[2]; 24 h
  MIC: 0.3 µM (≈ 0.435 µg/mL)
[2]; 48 h
  MIC: 0.3 µM (≈ 0.435 µg/mL)
[9]; 24 h
  MIC: 0.5 µM (≈ 0.725 µg/mL)
[9]; 48 h
  MIC: 1 µM (≈ 1.45 µg/mL)
[10]; 24 h
  MIC: 4 µM (≈ 5.8 µg/mL)
[10]; 48 h
  MIC: 4 µM (≈ 5.8 µg/mL)
[11]; 24 h
  MIC: 1 µM (≈ 1.45 µg/mL)
[11]; 48 h
  MIC: 1 µM (≈ 1.45 µg/mL)
[12]; 24 h
  MIC: 3 µM (≈ 4.35 µg/mL)
[12]; 48 h
  MIC: 3 µM (≈ 4.35 µg/mL)

## CC/C(=C(\c1ccc(O)cc1)c1ccc(OCCN(C)C)cc1)c1ccccc1 [compound 12, E/Z-4-Hydroxytamoxifen, reference compound]
[13]
  pIC50: 4.40 to 4.70
[14]
  pIC50: 4.40 to 4.70
[15]
  pIC50: 4.40 to 4.70
[16]
  pIC50: 6.52

## COc1cccc2c1C(=O)c1c(O)c3c(c(O)c1C2=O)C[C@@](O)(C(=O)CO)C[C@@H]3OC1CC2C(OCN2CN2COC3C(C)OC(O[C@H]4C[C@](O)(C(=O)CO)Cc5c(O)c6c(c(O)c54)C(=O)c4c(OC)cccc4C6=O)CC32)C(C)O1 (stereo partly drawn) [doxoform]
[17]
  times as potent as doxorubicin: 10,000 times
[18]
  tolerance by mice: poorly tolerated
[19]
  times as potent as doxorubicin: 250 times

## COc1cccc2c1C(=O)c1c(O)c3c(c(O)c1C2=O)C[C@@](O)(C(=O)CO)C[C@@H]3O[C@H]1C[C@H]2C(OCN3CN2CO[C@H]2[C@@H](C)O[C@@H](O[C@H]4C[C@](O)(C(=O)CO)Cc5c(O)c6c(c(O)c54)C(=O)c4c(OC)cccc4C6=O)C[C@@H]23)[C@H](C)O1 (stereo partly drawn) [epidoxoform]
[18]
  tolerance by mice: well tolerated
[18]; relative to doxorubicin
  efficacy in mice: improved efficacy in mice, relative to doxorubicin
[20]
  half-life: 2 h

## O=c1c(-c2ccc(O)cc2)coc2cc(O)cc(O)c12 [genistein]
[21]
  antitumor activity: 120 µM
[22]
  increase in tumor size: > 200%
[8]
  pIC50: 3.92

## (KLAKKLA)2: antimicrobial peptide (KLAKKLA)2 SEQ ID NO: 3 (microbe homing peptide)
[23]
  MIC (bacterial lysis): 6 µM
[24]
  sub-lethal concentration (lysis): >750 µM
[25]
  sub-lethal concentration (lysis): >272 µM
[26]
  MIC (bacterial lysis): 3 µM
[27]
  MIC (bacterial lysis): 6 µM

## RGD-4C: peptide CDCRGDCFC; at b346 the form with disulfide bridges [reference compound]
[28]
  water solubility: poorly water soluble over a range of pH

Source: patent publication US20070275911A1, “Targeted Drug-Formaldehyde Conjugates and Methods of Making and Using the Same” (priority 2003, published 2007)
